For three compounds, remaining activity results are on record in patent US20240246942A1, “KINASE INHIBITORS FOR THE TREATMENT OF NEURODEGENERATIVE DISEASES” (priority 2020, published 2024).

What all share (assay): biochemical
In experiment [1] the target is T1, panel of 374 wild-type kinases (Homo sapiens, UniProt Q6P3R8).
T1 construct: purchased Reaction Biology Corporation
T1 sequence (Q6P3R8 1-708): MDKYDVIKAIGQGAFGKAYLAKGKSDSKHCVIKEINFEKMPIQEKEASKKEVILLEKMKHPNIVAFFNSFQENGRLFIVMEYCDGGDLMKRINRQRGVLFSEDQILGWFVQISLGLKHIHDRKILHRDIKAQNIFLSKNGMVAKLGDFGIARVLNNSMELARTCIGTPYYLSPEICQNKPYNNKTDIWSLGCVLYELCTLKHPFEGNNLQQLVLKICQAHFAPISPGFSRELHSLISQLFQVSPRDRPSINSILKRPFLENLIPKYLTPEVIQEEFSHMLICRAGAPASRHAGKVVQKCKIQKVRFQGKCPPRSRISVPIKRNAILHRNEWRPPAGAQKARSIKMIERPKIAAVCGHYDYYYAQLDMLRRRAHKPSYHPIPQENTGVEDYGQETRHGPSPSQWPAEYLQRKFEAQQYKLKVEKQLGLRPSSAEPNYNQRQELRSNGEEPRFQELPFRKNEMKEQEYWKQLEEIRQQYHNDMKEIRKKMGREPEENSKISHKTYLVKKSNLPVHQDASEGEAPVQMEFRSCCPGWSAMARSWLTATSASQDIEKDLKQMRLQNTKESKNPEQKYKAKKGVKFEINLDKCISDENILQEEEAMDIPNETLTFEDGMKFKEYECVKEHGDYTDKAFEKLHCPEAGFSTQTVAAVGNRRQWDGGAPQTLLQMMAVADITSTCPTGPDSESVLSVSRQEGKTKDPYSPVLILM
Particulars: read-out: % Enzyme Activity (relative to DMSO controls), NEK5.

The target of experiment [2] is T2, panel of 374 wild-type kinases (Homo sapiens, UniProt P06213).
T2 construct: purchased Reaction Biology Corporation
T2 sequence (P06213 28-1382): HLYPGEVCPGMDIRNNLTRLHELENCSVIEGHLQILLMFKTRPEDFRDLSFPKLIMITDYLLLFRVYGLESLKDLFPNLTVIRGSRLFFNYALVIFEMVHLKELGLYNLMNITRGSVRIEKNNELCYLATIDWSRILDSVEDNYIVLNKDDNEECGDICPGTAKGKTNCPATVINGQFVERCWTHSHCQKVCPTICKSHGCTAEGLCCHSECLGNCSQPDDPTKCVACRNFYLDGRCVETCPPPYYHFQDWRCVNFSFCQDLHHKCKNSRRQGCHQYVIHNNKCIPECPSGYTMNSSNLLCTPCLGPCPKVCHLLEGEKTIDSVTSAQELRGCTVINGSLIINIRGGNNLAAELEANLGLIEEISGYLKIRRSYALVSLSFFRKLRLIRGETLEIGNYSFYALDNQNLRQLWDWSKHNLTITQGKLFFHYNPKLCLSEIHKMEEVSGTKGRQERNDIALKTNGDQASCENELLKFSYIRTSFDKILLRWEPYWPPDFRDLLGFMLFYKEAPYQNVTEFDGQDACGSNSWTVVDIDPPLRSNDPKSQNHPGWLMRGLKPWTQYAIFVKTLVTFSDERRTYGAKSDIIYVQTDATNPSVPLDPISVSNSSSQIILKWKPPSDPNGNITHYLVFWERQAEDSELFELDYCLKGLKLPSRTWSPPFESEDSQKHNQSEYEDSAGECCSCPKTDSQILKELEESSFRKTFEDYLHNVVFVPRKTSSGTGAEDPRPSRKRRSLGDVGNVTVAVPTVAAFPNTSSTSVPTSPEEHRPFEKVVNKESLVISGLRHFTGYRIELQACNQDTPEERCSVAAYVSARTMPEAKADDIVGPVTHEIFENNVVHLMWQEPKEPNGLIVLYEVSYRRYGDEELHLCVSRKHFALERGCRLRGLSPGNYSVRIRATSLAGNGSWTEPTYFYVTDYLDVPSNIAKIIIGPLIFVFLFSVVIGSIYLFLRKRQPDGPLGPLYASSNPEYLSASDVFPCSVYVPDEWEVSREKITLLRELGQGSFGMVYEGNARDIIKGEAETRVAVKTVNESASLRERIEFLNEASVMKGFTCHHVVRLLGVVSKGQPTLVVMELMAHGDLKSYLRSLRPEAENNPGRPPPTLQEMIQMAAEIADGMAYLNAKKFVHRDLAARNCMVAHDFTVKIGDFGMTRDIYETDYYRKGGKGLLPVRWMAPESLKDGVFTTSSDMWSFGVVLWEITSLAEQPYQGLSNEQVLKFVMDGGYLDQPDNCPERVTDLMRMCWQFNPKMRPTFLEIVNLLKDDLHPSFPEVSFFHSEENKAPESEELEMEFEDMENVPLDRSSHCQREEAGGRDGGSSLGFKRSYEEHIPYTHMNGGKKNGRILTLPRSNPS
Particulars: read-out: % Enzyme Activity (relative to DMSO controls), IR.

Experiment [3] addresses T3, panel of 374 wild-type kinases (Homo sapiens, UniProt P04626).
T3 construct: purchased Reaction Biology Corporation
Particulars: read-out: % Enzyme Activity (relative to DMSO controls), ERBB2/HER2.

Experiment [4] deals with T4, panel of 374 wild-type kinases (Homo sapiens, UniProt Q9BZL6).
T4 construct: purchased Reaction Biology Corporation
T4 sequence (Q9BZL6 1-878): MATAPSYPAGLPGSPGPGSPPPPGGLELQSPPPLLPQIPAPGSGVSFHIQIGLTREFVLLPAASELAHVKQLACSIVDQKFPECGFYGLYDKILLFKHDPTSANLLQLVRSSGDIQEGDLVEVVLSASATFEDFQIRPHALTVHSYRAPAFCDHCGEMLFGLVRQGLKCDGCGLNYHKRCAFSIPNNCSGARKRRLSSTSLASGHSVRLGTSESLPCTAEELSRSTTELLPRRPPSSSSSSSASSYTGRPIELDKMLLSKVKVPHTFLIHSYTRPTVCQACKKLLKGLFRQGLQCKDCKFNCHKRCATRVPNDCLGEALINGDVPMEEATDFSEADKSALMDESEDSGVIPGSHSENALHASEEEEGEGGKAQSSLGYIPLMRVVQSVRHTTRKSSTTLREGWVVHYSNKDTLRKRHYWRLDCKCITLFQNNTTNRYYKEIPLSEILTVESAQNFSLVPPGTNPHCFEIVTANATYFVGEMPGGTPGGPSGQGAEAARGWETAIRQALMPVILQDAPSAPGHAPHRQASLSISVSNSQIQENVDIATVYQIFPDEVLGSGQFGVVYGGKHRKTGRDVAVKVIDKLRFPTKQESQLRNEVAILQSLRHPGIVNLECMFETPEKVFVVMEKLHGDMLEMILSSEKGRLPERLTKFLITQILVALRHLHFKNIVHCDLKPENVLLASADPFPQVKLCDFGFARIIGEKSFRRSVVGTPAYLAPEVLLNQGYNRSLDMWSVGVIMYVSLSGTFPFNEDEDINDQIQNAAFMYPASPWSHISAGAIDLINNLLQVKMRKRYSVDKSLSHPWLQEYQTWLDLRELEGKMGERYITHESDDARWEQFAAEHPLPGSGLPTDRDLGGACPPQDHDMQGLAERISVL
Particulars: read-out: % Enzyme Activity (relative to DMSO controls), kinase PKD2/PRKD2.

In experiment [5] the target is T5, panel of 374 wild-type kinases (Homo sapiens, UniProt P51812).
T5 construct: purchased Reaction Biology Corporation
T5 sequence (P51812 whole entry): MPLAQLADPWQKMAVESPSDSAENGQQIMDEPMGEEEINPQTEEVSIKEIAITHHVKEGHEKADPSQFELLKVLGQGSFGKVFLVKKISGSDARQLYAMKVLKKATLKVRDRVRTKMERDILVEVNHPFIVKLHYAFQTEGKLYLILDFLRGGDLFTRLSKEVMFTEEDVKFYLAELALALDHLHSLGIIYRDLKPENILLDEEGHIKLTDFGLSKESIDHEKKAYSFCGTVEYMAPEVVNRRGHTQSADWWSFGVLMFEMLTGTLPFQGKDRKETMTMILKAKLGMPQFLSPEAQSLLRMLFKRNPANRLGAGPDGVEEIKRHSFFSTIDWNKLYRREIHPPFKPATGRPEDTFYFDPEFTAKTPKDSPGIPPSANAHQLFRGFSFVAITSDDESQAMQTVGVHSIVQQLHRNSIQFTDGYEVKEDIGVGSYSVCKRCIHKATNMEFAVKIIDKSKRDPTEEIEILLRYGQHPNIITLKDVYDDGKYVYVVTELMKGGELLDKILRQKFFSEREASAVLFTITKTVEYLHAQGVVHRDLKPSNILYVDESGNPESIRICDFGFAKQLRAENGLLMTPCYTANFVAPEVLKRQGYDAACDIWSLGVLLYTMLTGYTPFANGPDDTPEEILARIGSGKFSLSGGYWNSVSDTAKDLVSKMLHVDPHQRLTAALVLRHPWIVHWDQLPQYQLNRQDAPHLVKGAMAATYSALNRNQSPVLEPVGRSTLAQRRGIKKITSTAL
Particulars: read-out: % Enzyme Activity (relative to DMSO controls), kinase RSK2.

Experiment [6] addresses T6, panel of 374 wild-type kinases (Homo sapiens, UniProt Q9UBE8).
T6 construct: purchased Reaction Biology Corporation
T6 sequence (Q9UBE8 1-527): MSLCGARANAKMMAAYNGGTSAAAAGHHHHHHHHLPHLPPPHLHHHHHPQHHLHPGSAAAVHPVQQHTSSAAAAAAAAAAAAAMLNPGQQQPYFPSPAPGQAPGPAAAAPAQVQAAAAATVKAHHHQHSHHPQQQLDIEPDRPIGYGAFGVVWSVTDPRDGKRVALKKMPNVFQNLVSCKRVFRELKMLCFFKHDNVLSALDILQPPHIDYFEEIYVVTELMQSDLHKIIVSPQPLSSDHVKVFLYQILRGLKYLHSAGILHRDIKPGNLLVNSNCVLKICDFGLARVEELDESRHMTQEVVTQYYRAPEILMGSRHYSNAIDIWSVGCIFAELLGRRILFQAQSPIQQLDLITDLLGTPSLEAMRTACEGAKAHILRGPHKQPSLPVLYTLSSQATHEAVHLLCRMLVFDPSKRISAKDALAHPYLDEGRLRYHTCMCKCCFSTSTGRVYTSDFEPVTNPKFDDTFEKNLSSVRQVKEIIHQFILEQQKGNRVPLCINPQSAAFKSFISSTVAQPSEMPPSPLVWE
Particulars: read-out: % Enzyme Activity (relative to DMSO controls), NLK.

T3 sequence (P04626 23-1255): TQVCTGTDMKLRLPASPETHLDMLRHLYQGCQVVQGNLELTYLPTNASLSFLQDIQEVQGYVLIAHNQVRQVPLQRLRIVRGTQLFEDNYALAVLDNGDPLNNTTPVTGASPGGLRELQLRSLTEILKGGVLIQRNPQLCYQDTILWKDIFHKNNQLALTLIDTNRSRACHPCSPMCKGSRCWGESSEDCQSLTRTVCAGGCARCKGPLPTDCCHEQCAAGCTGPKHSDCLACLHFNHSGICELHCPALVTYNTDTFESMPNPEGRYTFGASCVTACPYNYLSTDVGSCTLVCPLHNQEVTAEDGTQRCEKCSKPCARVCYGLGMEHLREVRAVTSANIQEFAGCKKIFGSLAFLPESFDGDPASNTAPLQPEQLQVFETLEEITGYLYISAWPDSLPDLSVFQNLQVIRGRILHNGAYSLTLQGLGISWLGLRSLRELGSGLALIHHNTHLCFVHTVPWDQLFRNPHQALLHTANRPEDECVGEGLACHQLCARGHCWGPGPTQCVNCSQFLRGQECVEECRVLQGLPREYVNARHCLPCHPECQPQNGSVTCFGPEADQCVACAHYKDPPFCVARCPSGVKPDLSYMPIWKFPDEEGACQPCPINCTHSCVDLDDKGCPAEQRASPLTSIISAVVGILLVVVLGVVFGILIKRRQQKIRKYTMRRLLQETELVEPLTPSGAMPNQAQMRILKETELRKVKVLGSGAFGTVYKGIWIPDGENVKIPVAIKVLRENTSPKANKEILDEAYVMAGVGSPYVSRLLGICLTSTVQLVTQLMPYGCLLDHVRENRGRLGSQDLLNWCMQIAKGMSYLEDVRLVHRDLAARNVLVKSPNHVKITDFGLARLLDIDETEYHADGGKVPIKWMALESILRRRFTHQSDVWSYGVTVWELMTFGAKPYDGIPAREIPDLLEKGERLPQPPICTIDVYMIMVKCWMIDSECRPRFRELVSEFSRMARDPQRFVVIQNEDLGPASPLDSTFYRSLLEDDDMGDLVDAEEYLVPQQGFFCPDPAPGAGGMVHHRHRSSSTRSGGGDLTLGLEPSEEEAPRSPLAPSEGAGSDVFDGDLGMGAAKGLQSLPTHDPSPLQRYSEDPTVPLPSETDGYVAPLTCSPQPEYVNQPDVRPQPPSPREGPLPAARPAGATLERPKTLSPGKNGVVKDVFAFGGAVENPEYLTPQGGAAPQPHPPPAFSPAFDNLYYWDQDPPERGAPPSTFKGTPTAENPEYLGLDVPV

Consider `Cc1sc(C(=O)NC2COC2)cc1-n1cc(NC(=O)Nc2c(F)cccc2Cl)cn1` [Compound 27, 4-(4-(3-(2-chloro-6-fluorophenyl)ureido)-1H-pyrazol-1-yl)-5-methyl-N-(oxetan-3-yl)thiophene-2-carboxamide], for which the remaining activity at 10 µM in experiment [1] (10 uM) stood at 105%; in experiment [2] (10 uM), 85.5%; in experiment [3] (10 uM), 64.1%; in experiment [4] (10 uM), 95.7%; in experiment [5] (10 uM), 73%; in experiment [6] (10 uM), 85.2%.
As for `O=C(Nc1cnn(-c2csc(C(=O)NC3COC3)c2)c1)Nc1c(F)cccc1Cl` [Compound 25, 4-(4-(3-(2-chloro-6-fluorophenyl)ureido)-1H-pyrazol-1-yl)-N-(oxetan-3-yl)thiophene-2-carboxamide], the remaining activity at 5 µM was 88.1% in experiment [1]; 102% in experiment [2]; 97% in experiment [3]; 102% in experiment [4]; 79.9% in experiment [5]; 87.4% in experiment [6].
On to `O=C(Nc1cnn(-c2csc(C(=O)NC3COC3)c2)c1)Nc1ccccc1Cl` [Compound 17, 4-(4-(3-(2-chlorophenyl)ureido)-1H-pyrazol-1-yl)-N-(oxetan-3-yl)thiophene-2-carboxamide], for which the remaining activity at 5 µM was 110% in experiment [1]; 98.4% in experiment [2]; 103% in experiment [3]; 94.9% in experiment [4]; 101% in experiment [5]; 99.5% in experiment [6].
